According to patent publication US9981025B2, “Anti-drug vaccines” (priority 2009, dated 2018):

Test: Cocaine degradation in mouse sera by mass spectrometry
Format: in vitro ADME
Source text: FIG. 15. Degradation of cocaine in non-immune mouse serum (NIS) and in non-immune mouse serum diluted in PBS (PBS/NIS) by mass spectrometry.
FIGS. 16A-B. Rates of cocaine degradation in (A) non-immune mouse sera and (B) 5 immune mouse sera measured by a decrease in peak area (y-axis) of the cocaine peak generated by mass-spectrometry analysis.
The kinetics of cocaine degradation in immune and non-immune mouse sera was then studied by mass spectroscopy to discern the pharmacological effects of anti-coc antibodies. Although degradation rates were nearly uniform in all non-immune mice (FIG. 16A), significant differences existed in the rates in immune mice, depending on the titer of anti-coc antibodies in the plasma (FIG. 16B).

## COC(=O)[C@@H]1C2CCC(C[C@@H]1OC(=O)c1ccccc1)N2C (some centres unmarked) [cocaine]
Immune mouse sera, with increasing titer of anti-coc antibodies
  rate of cocaine degradation: degradation rates conversely decreased
non-immune mouse serum diluted in PBS versus undiluted
  rate of cocaine degradation: decreased rate of cocaine degradation
